# Test: Solubility in TFP (2,2,3,3-tetrafluoropropanol)
# Type: physicochemical
row,Solubility [%],Structure (SMILES)
1,5,CCN1CCS/C1=C/c1sc2ccccc2[n+]1C.[I-] [Example 2]
2,5,CCN1CCS/C1=C/c1sc2ccccc2[n+]1C
3,> 2,CC(C)N(c1nn(C)/c(=N/C=C/C2=[N+](C)c3ccccc3C2(C)C)s1)C(C)C [Example 1]

# From patent US20030008234A1, “Optical data carrier comprising a cyanine dye as light-absorbent compound in the information layer” (priority 2001, published 2003)
